# Test results reported in patent US20100249418A1, “NOVEL COMPOUND HAVING AFFINITY FOR AMYLOID” (NIHON MEDI-PHYSICS CO., LTD., priority 2007, published 2010).
# Like-named read-outs stand apart in the source and are kept apart here.
# How the values were obtained:
# [1] = reported in WO03/106439; cited from earlier work
# [2] = [11C]-labeled, rats; cited from earlier work
# [3] = [125I]-labeled, normal mice, cited from earlier work; for Transfer into brain: 2 minutes after administration
# [4] = system: amyloid; conditions: [125I]-labeled compounds, cited from earlier work
# [5] = Measurement of transferability into brain and clearance (radioactive accumulation in brain after intravenous injection); type: in vivo, male Wistar rats; conditions: rats; for Radioactive accumulation per unit weight, After 2 min. / Radioactive accumulation per unit weight, After 5 min. / Radioactive accumulation per unit weight, After 30 min. / Radioactive accumulation per unit weight, After 60 min.: brain; for Radioactive accumulation per unit weight, After 2 min.: 2 min after injection; for Radioactive accumulation per unit weight, After 5 min.: 5 min after injection; for Radioactive accumulation per unit weight, After 30 min.: 30 min after injection; for Radioactive accumulation per unit weight, After 60 min.: 60 min after injection; for Transferability to brain and clearance from brain (in words): 2 to 60 min
# Experimental: Using Compound 1, Compound 2, Compound 3 and Compound 4, a time course change of radioactive accumulation in brain of male Wistar rats (7-week old) was measured.
# Compound 1 in 10 mg/mL ascorbic acid-containing physiological saline solution (27 MBq/mL in radioactive concentration), Compound 2 in 10 mg/mL ascorbic acid-containing physiological saline solution (27 MBq/mL in radioactive concentration), Compound 3 in 10 mg/mL ascorbic acid-containing physiological saline solution (28 MBq/mL in radioactive concentration) and Compound 4 in 10 mg/mL ascorbic acid-containing physiological saline solution (30 MBq/mL in radioactive concentration) were prepared to obtain sample solutions. The sample solutions were injected under thiopental anesthesia into the tail vein of the male Wistar rats (7-week old) (dosage: 0.05 mL, dosed radioactivity: 1.4-1.5 MBq equivalent). The rats were sacrificed by bleeding from abdominal artery, and brains were removed and subjected to measurement of mass of brains and further subjected to measurement of radioactivity (hereinafter referred to as A in this Example) with a single channel analyzer (detector type: SP-20 manufactured by OHYO KOKEN KOGYO Co., Ltd.) 2, 5, 30 and 60 minutes after the injection. Further, the radioactivity level of the rest of the whole body was measured in the same manner as above (hereinafter referred to as B in this Example). Using these measurement results, radioactive accumulation per unit weight of brain (% ID/g) at the respective time points of dissection was calculated in accordance with the following formula (2) (Examples 19 to 22).
# Separately, [^123I]-IMPY in 10 mg/mL ascorbic acid-containing physiological saline solution (16 MBq/mL in radioactive concentration) was prepared, the same procedure as above was conducted, and radioactive accumulation per unit weight of brain (% ID/g) at the respective time points of dissection was calculated (Comparative Example 1).
# Meanwhile, three animals were used for all Examples and Comparative Example 2 at the respective time points.
# [6] = Measurement of partition coefficient based on the octanol extraction method (log Poctanol); type: physicochemical; conditions: octanol / 10 mmol/L phosphate buffer (pH 7.4)
# Experimental: Partition coefficients based on the octanol extraction method (hereinafter referred to as log Poctanol) were measured, which are generally known as an indicator of permeability of compounds through the blood-brain barrier (hereinafter referred to as BBB).
# Each diethyl ether solution of Compound 1, Compound 2, Compound 3 and Compound 4 as well as a diethyl ether solution of [^123I]-IMPY were each diluted with 10 mg/mL ascorbic acid-containing physiological saline solution, and adjusted to a radioactive concentration of 27-30 MBq/mL. To 2 mL of octanol, 10 μL each of these solutions was added, and 2 mL of 10 mmol/L phosphate buffer (pH 7.4) was added, followed by stirring for 30 seconds. After each mixture was centrifuged (2000 rpm×60 min.) with a low-speed centrifuge (type: CTD4, manufactured by Hitachi Koki Co., Ltd), the octanol layer and the water layer were sampled each in an amount of 1 mL, and subjected to measurement of radioactivity count with an autowell gamma system (Type: ARC-301B, manufactured by Aloka). Using the obtained radioactivity count, log Poctanol was calculated in accordance with the equation (1).
# [7] = system: Salmonella typhimurium TA100; assay: Reverse mutation test (Ames test), TA100; type: cell-based
# Experimental: (§1) In order to examine gene mutagenicity of Compound 5, reverse mutation test using Salmonella typhimurium TA98 and TA100 (hereinafter referred to as Ames test) was conducted.
# (§2) The test was conducted without addition of S9mix and with addition of S9mix. Dimethylsulfoxide (hereinafter referred to as DMSO) was used as a negative control. A positive control was 2-(2-furyl)-3-(5-nitro-2-furyl)acrylamide (hereinafter referred to as AF-2) in case S9mix was not added, and 2-aminoanthracene (hereinafter referred to as 2-AA) in case S9mix was added.
# (§3) As a sample solution to be added to a test plate, a solution at maximum concentration in which Compound 5 was dissolved in DMSO (concentration of compound: 50 mg/mL) and a sample solution to be added to a test plate at each concentration in which a solution at maximum concentration was diluted with DMSO were prepared. […]
# [8] = system: Salmonella typhimurium TA98 and TA100; assay: Reverse mutation test (Ames test), overall statement for both strains; type: cell-based
# Experimental: as §1, §2, §3
# [9] = system: Salmonella typhimurium TA98; assay: Reverse mutation test (Ames test), TA98; type: cell-based
# Experimental: as §1, §2, §3
Compound,"Radioactive accumulation per unit weight, After 2 min. [5] [% ID/g]","Radioactive accumulation per unit weight, After 5 min. [5] [% ID/g]","Radioactive accumulation per unit weight, After 30 min. [5] [% ID/g]","Radioactive accumulation per unit weight, After 60 min. [5] [% ID/g]",Transferability to brain and clearance from brain (in words) [5],logPoctanol value [6],also measured
"CC(=C(C#N)C#N)c1ccc2cc(N(C)CCF)ccc2c1 [FDDNP, 2-(1-{6-[(2-fluoroethyl)(methyl)amino]-2-naphthyl}ethylidene)malononitrile]",–,–,–,–,–,–,Reverse mutation test result [1]: positive
"CNc1ccc(/C=C/c2ccc(O)cc2)cc1 [SB-13, (E)-4-methylamino-4′-hydroxystilbene]",–,–,–,–,–,–,Clearance from normal tissues [2]: it cannot be said that the clearance is sufficiently fast
"CN(C)c1ccc(-c2nc3ccc(I)cc3o2)cc1 [IBOX, 6-iodo-2-[4′-(N,N-dimethylamino)phenyl]benzoxazole]",–,–,–,–,–,–,Transfer into brain [3]: transferred into brain; Clearance from normal tissues [3]: insufficient in clearance from normal tissues
"CN(C)c1ccc(-c2cn3cc(I)ccc3n2)cc1 [IMPY, 6-iodo-2-[4′-(N,N-dimethylamino)phenyl]imidazo[1,2-a]pyridine]",–,–,–,–,–,–,Transfer to brain and accumulation at amyloid ([4]; after administration): transferring to brain and accumulating at amyloid after administration; Clearance from normal tissues [4]: rapid clearance from normal tissues; Reverse mutation test result [1]: positive
"3-cyano-2-[4′-(2″-hydroxyethoxy)phenyl]-6-[^123I]iodoimidazo[1,2-a]pyridine [Compound 4]",0.82,0.67,0.18,0.04,excellent transferability to brain and rapid clearance from brain,3.0,–
"CN(C)c1ccc(/C=C/c2ccc(I)cc2)cc1 [m-I-SB, (E)-4-dimethylamino-4′-iodostilbene]",–,–,–,–,–,–,Transfer into brain [3]: transferred into brain; Clearance from normal tissues [3]: insufficient in clearance from normal tissues
"2-(4′-hydroxyphenyl)-6-[^123I]iodo-3-methylimidazo[1,2-a]pyridine [Compound 3]",0.50,0.34,0.05,0.01,excellent transferability to brain and rapid clearance from brain,2.5,–
"Cc1c(-c2ccc(OCCO)cc2)nc2ccc(I)cn12 [Compound 5, 2-[4′-(2″-hydroxyethoxy)phenyl]-6-iodo-3-methylimidazo[1,2-a]pyridine]",–,–,–,–,–,–,"Mutagenicity, TA100, with addition of S9mix ([7]; with addition of S9mix): Negative; Mutagenicity, TA100, without addition of S9mix ([7]; without addition of S9mix): Negative; Ames test judgement (mutagenicity) ([8]; TA98 and TA100, with and without S9mix): negative in the Ames test and has no mutagenicity; Mutagenicity, TA98, with addition of S9mix ([9]; with addition of S9mix): Negative; Mutagenicity, TA98, without addition of S9mix ([9]; without addition of S9mix): Negative"
"CN(C)c1ccc(-c2nc3ccc(I)cc3s2)cc1 [TZDM, 6-iodo-2-[4′-(N,N-dimethylamino)phenyl]benzothiazole]",–,–,–,–,–,–,Transfer into brain [3]: transferred into brain; Clearance from normal tissues [3]: insufficient in clearance from normal tissues
"Cc1c(-c2ccc(F)cc2)nc2ccc([123I])cn12 [Compound 1, 2-(4′-fluorophenyl)-6-[^123I]iodo-3-methylimidazo[1,2-a]pyridine]",0.91,0.60,0.08,0.03,excellent transferability to brain and rapid clearance from brain,2.3,–
"2-[4′-(2″-hydroxyethoxy)phenyl]-6-[^123I]iodo-3-methylimidazo[1,2-a]pyridine [Compound 2]",0.57,0.36,0.05,0.01,excellent transferability to brain and rapid clearance from brain,2.2,"Number of reverse mutation colonies relative to the group treated with the negative control ([8]; regardless of addition of S9mix and the addition amount of sample, negative control DMSO): less than two times"
"CN(C)c1ccc(-c2cn3cc([123I])ccc3n2)cc1 [[^123I]-IMPY, reference compound]",1.19,0.97,0.23,0.09,excellent transferability to brain and rapid clearance from brain,1.9,–
